Measurements from PubChem BioAssay (NCI).
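Where inhibition never reached the appropriate level, the endpoint shown equals the highest concentration tested. Otherwise, values were interpolated linearly from a five-concentration, 48-hour dose response in 96-well plates. GI50 marks 50% less growth. TGI is the concentration that stops growth completely.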

Assays:
Test in all cases: NCI-60 cell line screen, 48 h
[1] = tested on: RPMI-8226 leukemia
[2] = tested on: OVCAR-3 ovarian
[3] = tested on: M14 melanoma
[4] = tested on: A498 renal
[5] = tested on: CAKI-1 renal
[6] = tested on: RXF 393 renal
[7] = tested on: SNB-75 CNS
[8] = tested on: HOP-62 NSCLC
[9] = tested on: OVCAR-8 ovarian
[10] = tested on: NCI-H226 lung
[11] = tested on: SN12C renal
[12] = tested on: SK-MEL-2 melanoma
[13] = tested on: NCI-H460 lung
[14] = tested on: SF-295 CNS
[15] = tested on: MDA-MB-435
[16] = tested on: HT29 colon
[17] = tested on: UACC-62 melanoma
[18] = tested on: OVCAR-4 ovarian
[19] = tested on: SW-620 colon
[20] = tested on: IGROV1 ovarian
[21] = tested on: HCC-2998 colon
[22] = tested on: UACC-257 melanoma
[23] = tested on: SK-MEL-5 melanoma
[24] = tested on: HCT-15 colon
[25] = tested on: SF-539 CNS
[26] = tested on: MDA-MB-468 breast
[27] = tested on: EKVX NSCLC
[28] = tested on: HOP-92 NSCLC
[29] = tested on: NCI-H522 lung
[30] = tested on: ACHN renal
[31] = tested on: SK-OV-3 ovarian
[32] = tested on: DU-145 prostate
[33] = tested on: HL-60(TB) leukemia
[34] = tested on: K-562 leukemia
[35] = tested on: 786-0 renal
[36] = tested on: COLO 205 colon
[37] = tested on: PC-3 prostate
[38] = tested on: MCF7 breast
[39] = tested on: KM12 colon
[40] = tested on: BT-549 breast
[41] = tested on: CCRF-CEM leukemia
[42] = tested on: NCI-H23 lung
[43] = tested on: OVCAR-5 ovarian
[44] = tested on: A549 NSCLC
[45] = tested on: HS 578T breast
[46] = tested on: SF-268 CNS
[47] = tested on: HCT-116 colon
[48] = tested on: U251 CNS
[49] = tested on: MALME-3M melanoma
[50] = tested on: SK-MEL-28 melanoma
[51] = tested on: TK-10 renal
[52] = tested on: LOX IMVI melanoma
[53] = tested on: MOLT-4 leukemia
[54] = tested on: SR leukemia
[55] = tested on: MDA-MB-231 breast
[56] = tested on: SNB-19 CNS
[57] = tested on: T-47D breast
[58] = tested on: UO-31 renal

In the case of `C=C1CC[C@@H]2[C@]3(C)COC(c4cn[nH]c4-c4cccc(Cl)c4)O[C@@H]3CC[C@@]2(C)[C@@H]1C/C=C1/C(=O)OCC1O` (stereo partly drawn), the GI50 [1] is reported as 2.25 µM, the TGI [1] is reported as 7.02 µM and the GI50 [2] is reported as 1.93 µM. The TGI [2] was 3.77 µM, the GI50 [3] was 2.19 µM and the TGI [3] was 5.88 µM. It also gave a GI50 [4] of 18.5 µM, a TGI [4] of 32.6 µM and a GI50 [5] of 4 µM. For the same compound, the TGI [5] was 14.6 µM, the GI50 [6] was 1.73 µM and the TGI [6] was 3.24 µM. It also gave a GI50 [7] of 2.41 µM, a TGI [7] of 12.3 µM and a GI50 [8] of 15.3 µM. It also gave a TGI [8] of 32 µM, a GI50 [9] of 2.39 µM and a TGI [9] of 7.7 µM. For the same compound, the GI50 [10] was 1.66 µM, the TGI [10] was 3.21 µM and the GI50 [11] was 2.94 µM. The TGI [11] was 10.5 µM, the GI50 [12] was 2.71 µM and the TGI [12] was 8.53 µM. For the same compound, the GI50 [13] was 8.87 µM, the TGI [13] was 25.6 µM and the GI50 [14] was 4.27 µM. For the same compound, the TGI [14] was 16.1 µM, the GI50 [15] was 2.47 µM and the TGI [15] was 7.62 µM. It also gave a GI50 [16] of 2.7 µM, a TGI [16] of 6.8 µM and a GI50 [17] of 1.69 µM. For the same compound, the TGI [17] was 3.62 µM, the GI50 [18] was 4.4 µM and the TGI [18] was 45.7 µM. It also gave a GI50 [19] of 2.35 µM, a TGI [19] of 5.96 µM and a GI50 [20] of 4.14 µM. It also gave a TGI [20] of 15.8 µM, a GI50 [21] of 3.49 µM and a TGI [21] of 11.5 µM. The GI50 [22] was 11.2 µM, the TGI [22] was 27 µM and the GI50 [23] was 2.27 µM. For the same compound, the TGI [23] was 5.37 µM, the GI50 [24] was 1.79 µM and the TGI [24] was 3.81 µM. It also gave a GI50 [25] of 1.77 µM, a TGI [25] of 3.36 µM and a GI50 [26] of 1.88 µM. It also gave a TGI [26] of 4.97 µM, a GI50 [27] of 3.68 µM and a TGI [27] of 13.9 µM. For the same compound, the GI50 [28] was 4.29 µM, the TGI [28] was 22.3 µM and the GI50 [29] was 1.75 µM. The TGI [29] was 3.59 µM, the GI50 [30] was 2.47 µM and the TGI [30] was 6.95 µM. It also gave a GI50 [31] of 16 µM, a TGI [31] of 35.1 µM and a GI50 [32] of 5.01 µM. For the same compound, the TGI [32] was 19.5 µM, the GI50 [33] was 2.91 µM and the TGI [33] was 16.3 µM. For the same compound, the GI50 [34] was 2.41 µM, the TGI [34] was 10.5 µM and the GI50 [35] was 3.36 µM. The TGI [35] was 11.7 µM, the GI50 [36] was 4.85 µM and the TGI [36] was 19.5 µM. For the same compound, the GI50 [37] was 4.08 µM, the TGI [37] was 30.7 µM and the GI50 [38] was 2.06 µM. For the same compound, the TGI [38] was 9.16 µM, the GI50 [39] was 3.29 µM and the TGI [39] was 13.1 µM. For the same compound, the GI50 [40] was 2.36 µM, the TGI [40] was 6.03 µM and the GI50 [41] was 2.7 µM. For the same compound, the TGI [41] was 11.4 µM, the GI50 [42] was 4.36 µM and the TGI [42] was 15.9 µM. The GI50 [43] was 3.63 µM, the TGI [43] was 14 µM and the GI50 [44] was 9.73 µM. For the same compound, the TGI [44] was 30.4 µM, the GI50 [45] was 9.04 µM and the TGI [45] was 62.7 µM. The GI50 [46] was 17.3 µM, the TGI [46] was 41.4 µM and the GI50 [47] was 1.84 µM. It also gave a TGI [47] of 3.93 µM, a GI50 [48] of 2.15 µM and a TGI [48] of 5.29 µM. The GI50 [49] was 1.84 µM, the TGI [49] was 4.26 µM and the GI50 [50] was 1.98 µM. For the same compound, the TGI [50] was 4.05 µM, the GI50 [51] was 12.4 µM and the TGI [51] was 25.7 µM. It also gave a GI50 [52] of 1.44 µM, a TGI [52] of 2.83 µM and a GI50 [53] of 3.83 µM. For the same compound, the TGI [53] was 18.2 µM.
In the case of `CN(C)c1ccnc(CNCCSC2(c3ccccc3)c3ccccc3C=Cc3ccccc32)c1`, the GI50 [1] is reported as 1.62 µM, the TGI [1] is reported as 5.44 µM and the GI50 [2] is reported as 1.73 µM. For the same compound, the TGI [2] was 4.87 µM, the GI50 [3] was 0.71 µM and the TGI [3] was 2.5 µM. It also gave a GI50 [4] of 9.97 µM, a TGI [4] of 25.3 µM and a GI50 [5] of 2.29 µM. The TGI [5] was 12.3 µM, the GI50 [6] was 1.25 µM and the TGI [6] was 4.5 µM. The GI50 [7] was 1.56 µM, the TGI [7] was 6.29 µM and the GI50 [8] was 2.16 µM. It also gave a TGI [8] of 8.1 µM, a GI50 [10] of 2.46 µM and a TGI [10] of 8.8 µM. The GI50 [11] was 1.39 µM, the TGI [11] was 6.53 µM and the GI50 [12] was 2.2 µM. For the same compound, the TGI [12] was 4.89 µM, the GI50 [13] was 1.61 µM and the TGI [13] was 3.13 µM. The GI50 [54] was 0.798 µM, the TGI [54] was 5.04 µM and the GI50 [14] was 1.8 µM. It also gave a TGI [14] of 5.18 µM, a GI50 [15] of 0.215 µM and a TGI [15] of 0.495 µM. For the same compound, the GI50 [16] was 1.69 µM, the TGI [16] was 3.92 µM and the GI50 [17] was 2.17 µM. It also gave a TGI [17] of 5.39 µM, a GI50 [18] of 3.56 µM and a TGI [18] of 16 µM. It also gave a GI50 [19] of 0.579 µM, a TGI [19] of 2.26 µM and a GI50 [20] of 2.94 µM. It also gave a TGI [20] of 17.1 µM, a GI50 [21] of 1.41 µM and a TGI [21] of 2.98 µM. It also gave a GI50 [22] of 1.79 µM, a TGI [22] of 4.18 µM and a GI50 [23] of 1.46 µM. For the same compound, the TGI [23] was 2.78 µM, the GI50 [24] was 0.52 µM and the TGI [24] was 11.4 µM. For the same compound, the GI50 [25] was 1.47 µM, the TGI [25] was 2.83 µM and the GI50 [55] was 1.46 µM. It also gave a TGI [55] of 3.63 µM, a GI50 [26] of 0.46 µM and a TGI [26] of 2.06 µM. The GI50 [27] was 2.44 µM, the TGI [27] was 13.9 µM and the GI50 [28] was 1.25 µM. For the same compound, the TGI [28] was 5.18 µM, the GI50 [56] was 3.75 µM and the TGI [56] was 15.2 µM. The GI50 [29] was 1.4 µM, the TGI [29] was 3.36 µM and the GI50 [30] was 1.44 µM. It also gave a TGI [30] of 12.2 µM, a GI50 [31] of 2.8 µM and a TGI [31] of 9.04 µM. It also gave a GI50 [32] of 2.85 µM, a TGI [32] of 8.11 µM and a GI50 [57] of 2.48 µM. The TGI [57] was 9.26 µM, the GI50 [34] was 0.38 µM and the TGI [34] was greater than 100 µM. It also gave a GI50 [35] of 1.62 µM, a TGI [35] of 3.98 µM and a GI50 [36] of 1.61 µM. For the same compound, the TGI [36] was 3.11 µM, the GI50 [37] was 1.31 µM and the TGI [37] was 6.91 µM. For the same compound, the GI50 [58] was 2.16 µM, the TGI [58] was 11.4 µM and the GI50 [38] was 0.419 µM. For the same compound, the TGI [38] was 2.39 µM, the GI50 [39] was 1.44 µM and the TGI [39] was 3.24 µM. It also gave a GI50 [40] of 1.91 µM, a TGI [40] of 5 µM and a GI50 [41] of 0.681 µM. The TGI [41] was 11.9 µM, the GI50 [42] was 2.57 µM and the TGI [42] was 7.46 µM. For the same compound, the GI50 [43] was 2.45 µM, the TGI [43] was 7.64 µM and the GI50 [44] was 0.556 µM. The TGI [44] was 5.83 µM, the GI50 [45] was 1.99 µM and the TGI [45] was 5.92 µM. The GI50 [46] was 1.86 µM, the TGI [46] was 7.62 µM and the GI50 [47] was 0.526 µM. It also gave a TGI [47] of 2.1 µM, a GI50 [48] of 0.38 µM and a TGI [48] of 1.6 µM. The GI50 [49] was 1.54 µM, the TGI [49] was 3.16 µM and the GI50 [50] was 2.02 µM. It also gave a TGI [50] of 4.11 µM, a GI50 [51] of 3.09 µM and a TGI [51] of 14.8 µM. It also gave a GI50 [52] of 1.43 µM, a TGI [52] of 2.77 µM and a GI50 [53] of 2.49 µM. The TGI [53] was 12.4 µM.
